Values after ≈ are worked out from the molar mass of the structure shown.
System: Bacillus thuringiensis
Experiment: Antibacterial activity against Bacillus thuringiensis at 2 mg/ml by agar diffusion method
Type: functional
Conditions: read-out: DIZ

Row | Structure (SMILES) | zone of inhibition at 2000 µg/mL [mm]
1 | N#C/C(C(=O)N1NC(=O)C2C3c4ccccc4C(c4ccccc43)C2C1=O)=C1\SC=C(c2ccccc2)N1c1ccccc1 (stereo unspecified) | 39
2 | N#C/C(C(=O)N1NC(=O)C2C3c4ccccc4C(c4ccccc43)C2C1=O)=C1\SCCCN1c1ccccc1 (stereo unspecified) | 19
3 | N#C/C(C(=O)N1NC(=O)C2C3c4ccccc4C(c4ccccc43)C2C1=O)=C1\SC(=O)CN1c1ccccc1 (stereo unspecified) | 17
4 | N#C/C(C(=O)N1NC(=O)C2C3c4ccccc4C(c4ccccc43)C2C1=O)=C1\SCC(=O)N1c1ccccc1 (stereo unspecified) | 24
5 | CN(C)/C=N/N1C(=O)C2C3c4ccccc4C(c4ccccc43)C2C1=O (stereo unspecified) | 20
6 | CC(=O)c1sc(Nc2ccccc2)c(C(=O)N2NC(=O)C3C4c5ccccc5C(c5ccccc54)C3C2=O)c1N (stereo unspecified) | 15
7 | N#C/C(C(=O)N1NC(=O)C2C3c4ccccc4C(c4ccccc43)C2C1=O)=C1\SCCN1c1ccccc1 (stereo unspecified) | 22
8 | O=C1NN(c2nc(-c3ccccc3)cs2)C(=O)C2C3c4ccccc4C(c4ccccc43)C12 (stereo unspecified) | 23
9 | CC1(C)S[C@@H]2[C@H](NC(=O)[C@H](N)c3ccccc3)C(=O)N2[C@H]1C(=O)O [AMPICILLIN] | 18
10 | Nc1c(C(=O)c2ccccc2)sc(Nc2ccccc2)c1C(=O)N1NC(=O)C2C3c4ccccc4C(c4ccccc43)C2C1=O (stereo unspecified) | 17
11 | N#C/C(C(=O)N1NC(=O)C2C3c4ccccc4C(c4ccccc43)C2C1=O)=C1/Nc2ccccc2S1 (stereo unspecified) | 30
12 | O=C(N[C@H](CO)[C@H](O)c1ccc([N+](=O)[O-])cc1)C(Cl)Cl [CHLORAMPHENICOL] | 23
13 | CC1=CS/C(=C(\C#N)C(=O)N2NC(=O)C3C4c5ccccc5C(c5ccccc54)C3C2=O)N1c1ccccc1 (stereo unspecified) | 28
14 | N#C/C(C(=O)N1NC(=O)C2C3c4ccccc4C(c4ccccc43)C2C1=O)=c1\sc(=O)/c(=C2\C(=O)Nc3ccccc32)n1-c1ccccc1 (stereo unspecified) | 15
15 | COc1ccc(/C=c2\c(=O)s/c(=C(\C#N)C(=O)N3NC(=O)C4C5c6ccccc6C(c6ccccc65)C4C3=O)n2-c2ccccc2)cc1 (stereo unspecified) | 11
16 | O=C1CSC(N2NC(=O)C3C4c5ccccc5C(c5ccccc54)C3C2=O)=N1 (stereo unspecified) | 24
17 | Cc1csc(N2NC(=O)C3C4c5ccccc5C(c5ccccc54)C3C2=O)n1 (stereo unspecified) | 40
18 | N#C/C(C(=O)N1NC(=O)C2C3c4ccccc4C(c4ccccc43)C2C1=O)=c1\sc(=O)c(=C2C(=O)c3ccccc3C2=O)n1-c1ccccc1 (stereo unspecified) | 19
19 | N#C/C(C(=O)N1NC(=O)C2C3c4ccccc4C(c4ccccc43)C2C1=O)=C(\S)Nc1ccccc1 (stereo unspecified) | 22

System: Escherichia coli
Experiment: Antibacterial activity against Escherichia coli at 2 mg/ml by agar diffusion method
Type: functional
Conditions: read-out: DIZ

Row | Structure (SMILES) | zone of inhibition at 2000 µg/mL [mm]
20 | N#C/C(C(=O)N1NC(=O)C2C3c4ccccc4C(c4ccccc43)C2C1=O)=C1\SC=C(c2ccccc2)N1c1ccccc1 (stereo unspecified) | 40
21 | N#Cc1sc(Nc2ccccc2)c(C(=O)N2NC(=O)C3C4c5ccccc5C(c5ccccc54)C3C2=O)c1N (stereo unspecified) | 20
22 | O=C1NN(c2nc(-c3ccccc3)c(Br)s2)C(=O)C2C3c4ccccc4C(c4ccccc43)C12 (stereo unspecified) | 12
23 | N#C/C(C(=O)N1NC(=O)C2C3c4ccccc4C(c4ccccc43)C2C1=O)=C1\SCCCN1c1ccccc1 (stereo unspecified) | 25
24 | N#C/C(C(=O)N1NC(=O)C2C3c4ccccc4C(c4ccccc43)C2C1=O)=C1\SC(=O)CN1c1ccccc1 (stereo unspecified) | 18
25 | N#C/C(C(=O)N1NC(=O)C2C3c4ccccc4C(c4ccccc43)C2C1=O)=C1\SCC(=O)N1c1ccccc1 (stereo unspecified) | 26
26 | CN(C)/C=N/N1C(=O)C2C3c4ccccc4C(c4ccccc43)C2C1=O (stereo unspecified) | 21
27 | CC(=O)c1sc(Nc2ccccc2)c(C(=O)N2NC(=O)C3C4c5ccccc5C(c5ccccc54)C3C2=O)c1N (stereo unspecified) | 13
28 | N#C/C(C(=O)N1NC(=O)C2C3c4ccccc4C(c4ccccc43)C2C1=O)=C1\SCCN1c1ccccc1 (stereo unspecified) | 15
29 | O=C1NN(c2nc(-c3ccccc3)cs2)C(=O)C2C3c4ccccc4C(c4ccccc43)C12 (stereo unspecified) | 15
30 | CC1(C)S[C@@H]2[C@H](NC(=O)[C@H](N)c3ccccc3)C(=O)N2[C@H]1C(=O)O [AMPICILLIN] | 19
31 | Nc1c(C(=O)c2ccccc2)sc(Nc2ccccc2)c1C(=O)N1NC(=O)C2C3c4ccccc4C(c4ccccc43)C2C1=O (stereo unspecified) | 20
32 | N#C/C(C(=O)N1NC(=O)C2C3c4ccccc4C(c4ccccc43)C2C1=O)=C1/Nc2ccccc2S1 (stereo unspecified) | 26
33 | O=C(N[C@H](CO)[C@H](O)c1ccc([N+](=O)[O-])cc1)C(Cl)Cl [CHLORAMPHENICOL] | 19
34 | CC1=CS/C(=C(\C#N)C(=O)N2NC(=O)C3C4c5ccccc5C(c5ccccc54)C3C2=O)N1c1ccccc1 (stereo unspecified) | 30
35 | N#C/C(C(=O)N1NC(=O)C2C3c4ccccc4C(c4ccccc43)C2C1=O)=c1\sc(=O)/c(=C2\C(=O)Nc3ccccc32)n1-c1ccccc1 (stereo unspecified) | 15
36 | COc1ccc(/C=c2\c(=O)s/c(=C(\C#N)C(=O)N3NC(=O)C4C5c6ccccc6C(c6ccccc65)C4C3=O)n2-c2ccccc2)cc1 (stereo unspecified) | 13
37 | O=C1CSC(N2NC(=O)C3C4c5ccccc5C(c5ccccc54)C3C2=O)=N1 (stereo unspecified) | 26
38 | Cc1csc(N2NC(=O)C3C4c5ccccc5C(c5ccccc54)C3C2=O)n1 (stereo unspecified) | 16
39 | N#C/C(C(=O)N1NC(=O)C2C3c4ccccc4C(c4ccccc43)C2C1=O)=c1\sc(=O)c(=C2C(=O)c3ccccc3C2=O)n1-c1ccccc1 (stereo unspecified) | 25
40 | N#C/C(C(=O)N1NC(=O)C2C3c4ccccc4C(c4ccccc43)C2C1=O)=C(\S)Nc1ccccc1 (stereo unspecified) | 22

System: Bacillus thuringiensis
Experiment: Antibacterial activity against Bacillus thuringiensis by twofold serial broth dilution method
Type: functional
Conditions: not given

Row | Structure (SMILES) | MIC [µg/mL]
41 | N#C/C(C(=O)N1NC(=O)C2C3c4ccccc4C(c4ccccc43)C2C1=O)=C1\SC=C(c2ccccc2)N1c1ccccc1 (stereo unspecified) | 6 (≈ 10.1 µM)
42 | N#C/C(C(=O)N1NC(=O)C2C3c4ccccc4C(c4ccccc43)C2C1=O)=C1\SCCCN1c1ccccc1 (stereo unspecified) | 50 (≈ 93.9 µM)
43 | N#C/C(C(=O)N1NC(=O)C2C3c4ccccc4C(c4ccccc43)C2C1=O)=C1\SCC(=O)N1c1ccccc1 (stereo unspecified) | 12.5 (≈ 23.5 µM)
44 | CN(C)/C=N/N1C(=O)C2C3c4ccccc4C(c4ccccc43)C2C1=O (stereo unspecified) | 50 (≈ 145 µM)
45 | N#C/C(C(=O)N1NC(=O)C2C3c4ccccc4C(c4ccccc43)C2C1=O)=C1\SCCN1c1ccccc1 (stereo unspecified) | 12.5 (≈ 24.1 µM)
46 | O=C1NN(c2nc(-c3ccccc3)cs2)C(=O)C2C3c4ccccc4C(c4ccccc43)C12 (stereo unspecified) | 12.5 (≈ 27.8 µM)
47 | CC1(C)S[C@@H]2[C@H](NC(=O)[C@H](N)c3ccccc3)C(=O)N2[C@H]1C(=O)O [AMPICILLIN] | 12.5 (≈ 35.8 µM)
48 | Nc1c(C(=O)c2ccccc2)sc(Nc2ccccc2)c1C(=O)N1NC(=O)C2C3c4ccccc4C(c4ccccc43)C2C1=O (stereo unspecified) | 50 (≈ 81.9 µM)
49 | N#C/C(C(=O)N1NC(=O)C2C3c4ccccc4C(c4ccccc43)C2C1=O)=C1/Nc2ccccc2S1 (stereo unspecified) | 6 (≈ 12.2 µM)
50 | O=C(N[C@H](CO)[C@H](O)c1ccc([N+](=O)[O-])cc1)C(Cl)Cl [CHLORAMPHENICOL] | 12.5 (≈ 38.7 µM)
51 | CC1=CS/C(=C(\C#N)C(=O)N2NC(=O)C3C4c5ccccc5C(c5ccccc54)C3C2=O)N1c1ccccc1 (stereo unspecified) | 12.5 (≈ 23.6 µM)
52 | O=C1CSC(N2NC(=O)C3C4c5ccccc5C(c5ccccc54)C3C2=O)=N1 (stereo unspecified) | 12.5 (≈ 32.1 µM)
53 | Cc1csc(N2NC(=O)C3C4c5ccccc5C(c5ccccc54)C3C2=O)n1 (stereo unspecified) | 6 (≈ 15.5 µM)
54 | N#C/C(C(=O)N1NC(=O)C2C3c4ccccc4C(c4ccccc43)C2C1=O)=c1\sc(=O)c(=C2C(=O)c3ccccc3C2=O)n1-c1ccccc1 (stereo unspecified) | 50 (≈ 74.1 µM)
55 | N#C/C(C(=O)N1NC(=O)C2C3c4ccccc4C(c4ccccc43)C2C1=O)=C(\S)Nc1ccccc1 (stereo unspecified) | 12.5 (≈ 25.4 µM)

System: Escherichia coli
Experiment: Antibacterial activity against Escherichia coli by twofold serial broth dilution method
Type: functional
Conditions: not given

Row | Structure (SMILES) | MIC [µg/mL]
56 | N#C/C(C(=O)N1NC(=O)C2C3c4ccccc4C(c4ccccc43)C2C1=O)=C1\SC=C(c2ccccc2)N1c1ccccc1 (stereo unspecified) | 6 (≈ 10.1 µM)
57 | N#Cc1sc(Nc2ccccc2)c(C(=O)N2NC(=O)C3C4c5ccccc5C(c5ccccc54)C3C2=O)c1N (stereo unspecified) | 12.5 (≈ 23.5 µM)
58 | N#C/C(C(=O)N1NC(=O)C2C3c4ccccc4C(c4ccccc43)C2C1=O)=C1\SCCCN1c1ccccc1 (stereo unspecified) | 12.5 (≈ 23.5 µM)
59 | N#C/C(C(=O)N1NC(=O)C2C3c4ccccc4C(c4ccccc43)C2C1=O)=C1\SCC(=O)N1c1ccccc1 (stereo unspecified) | 12.5 (≈ 23.5 µM)
60 | CN(C)/C=N/N1C(=O)C2C3c4ccccc4C(c4ccccc43)C2C1=O (stereo unspecified) | 12.5 (≈ 36.2 µM)
61 | N#C/C(C(=O)N1NC(=O)C2C3c4ccccc4C(c4ccccc43)C2C1=O)=C1\SCCN1c1ccccc1 (stereo unspecified) | 50 (≈ 96.4 µM)
62 | O=C1NN(c2nc(-c3ccccc3)cs2)C(=O)C2C3c4ccccc4C(c4ccccc43)C12 (stereo unspecified) | 50 (≈ 111 µM)
63 | CC1(C)S[C@@H]2[C@H](NC(=O)[C@H](N)c3ccccc3)C(=O)N2[C@H]1C(=O)O [AMPICILLIN] | 12.5 (≈ 35.8 µM)
64 | Nc1c(C(=O)c2ccccc2)sc(Nc2ccccc2)c1C(=O)N1NC(=O)C2C3c4ccccc4C(c4ccccc43)C2C1=O (stereo unspecified) | 12.5 (≈ 20.5 µM)
65 | N#C/C(C(=O)N1NC(=O)C2C3c4ccccc4C(c4ccccc43)C2C1=O)=C1/Nc2ccccc2S1 (stereo unspecified) | 12.5 (≈ 25.5 µM)
66 | O=C(N[C@H](CO)[C@H](O)c1ccc([N+](=O)[O-])cc1)C(Cl)Cl [CHLORAMPHENICOL] | 12.5 (≈ 38.7 µM)
67 | CC1=CS/C(=C(\C#N)C(=O)N2NC(=O)C3C4c5ccccc5C(c5ccccc54)C3C2=O)N1c1ccccc1 (stereo unspecified) | 12.5 (≈ 23.6 µM)
68 | O=C1CSC(N2NC(=O)C3C4c5ccccc5C(c5ccccc54)C3C2=O)=N1 (stereo unspecified) | 12.5 (≈ 32.1 µM)
69 | Cc1csc(N2NC(=O)C3C4c5ccccc5C(c5ccccc54)C3C2=O)n1 (stereo unspecified) | 50 (≈ 129 µM)
70 | N#C/C(C(=O)N1NC(=O)C2C3c4ccccc4C(c4ccccc43)C2C1=O)=c1\sc(=O)c(=C2C(=O)c3ccccc3C2=O)n1-c1ccccc1 (stereo unspecified) | 12.5 (≈ 18.5 µM)
71 | N#C/C(C(=O)N1NC(=O)C2C3c4ccccc4C(c4ccccc43)C2C1=O)=C(\S)Nc1ccccc1 (stereo unspecified) | 12.5 (≈ 25.4 µM)

Source: ChEMBL document CHEMBL1153780, “Synthesis and antibacterial activity of some new thiazole and thiophene derivatives” (2009)
